Our source for the IC50 values is BindingDB's records for doi:10.1021/jm034182u (Virginia Commonwealth University, 2004).

The target of this assay is E3 ubiquitin-protein ligase Mdm2 (Homo sapiens, UniProt Q00987). The experiment in a line: ELISA-Based p53-MDM2 Binding Assay. The following applies: pH 7.6; 37 °C. On the procedure:
ELISA plates were coated with equivalent amounts of either glutathione S-transferase (GST) protein or GST-MDM2 (1-188) fusion protein and incubated on a microtiter plate shaker overnight at 4 deg C. After washing the wells five times with PBS containing 0.2 M NaCl, the plates were incubated at 37 deg C with blocking solution (PBS containing 5% nonfat dry milk) for 2 hours. After the plates were washed five times, the GST-p53 was added, and the plates were incubated for an additional 30 minutes at 37 deg C. After another washing step, the plates were incubated with the anti-p53 monoclonal pAb421 (Oncogene Science, Inc.) in blocking solution for 1 hour at 37 deg C. The plates were again washed five times and incubated for 1 hour at 37 deg C with a goat anti-mouse IgG alkaline phosphatase conjugate (Promega, Inc.). Excess antibody was removed with 15 washes, the wells were filled with PBS, and the absorbance at 405 nm was read to establish background readings for the wells. […] Finally, the A405 was measured with a microplate spectrophotometer (Molecular Devices, Inc.). […] Absorbance values were normalized by subtraction of equivalent GST-seeded well values from their GST-mdm2 (1-188)-seeded neighbors. IC50 values were determined by fitting data to a three-parameter sigmoidal dose-response function.

Chain of E3 ubiquitin-protein ligase Mdm2 (Q00987 whole entry, the tested form may be a part): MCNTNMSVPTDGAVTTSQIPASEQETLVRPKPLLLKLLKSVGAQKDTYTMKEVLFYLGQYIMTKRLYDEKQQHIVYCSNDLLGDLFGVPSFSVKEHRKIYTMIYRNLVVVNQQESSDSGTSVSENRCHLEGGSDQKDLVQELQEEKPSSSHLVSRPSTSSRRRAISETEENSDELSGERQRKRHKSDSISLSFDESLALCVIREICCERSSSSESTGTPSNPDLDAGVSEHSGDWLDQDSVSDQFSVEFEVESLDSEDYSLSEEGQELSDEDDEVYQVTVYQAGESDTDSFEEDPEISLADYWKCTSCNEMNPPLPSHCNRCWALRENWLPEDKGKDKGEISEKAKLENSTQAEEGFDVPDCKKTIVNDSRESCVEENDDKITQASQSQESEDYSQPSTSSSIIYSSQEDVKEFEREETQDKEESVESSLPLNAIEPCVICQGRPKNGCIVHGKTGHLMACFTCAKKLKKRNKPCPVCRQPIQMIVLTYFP

As to `CC(C)Oc1ccc(C(=O)NS(=O)(=O)c2ccc(N=Nc3c(O)n(-c4ccccc4)n(-c4ccccc4)c3=O)cc2)cc1`, the IC50 is 31.8 µM.
